Reference: PubChem BioAssay (NCI)
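Results reflect a 48-hour exposure of cells in 96-well plates to compound at five concentrations. TGI: concentration producing complete growth inhibition.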

Legend:
Experiment in all cases: NCI-60 cell line screen, 48 h
786-0 renal = system: 786-0 renal
A498 renal = system: A498 renal
A549 NSCLC = system: A549 NSCLC
ACHN renal = system: ACHN renal
BT-549 breast = system: BT-549 breast
CAKI-1 renal = system: CAKI-1 renal
CCRF-CEM leukemia = system: CCRF-CEM leukemia
COLO 205 colon = system: COLO 205 colon
DU-145 prostate = system: DU-145 prostate
EKVX NSCLC = system: EKVX NSCLC
HCC-2998 colon = system: HCC-2998 colon
HCT-116 colon = system: HCT-116 colon
HCT-15 colon = system: HCT-15 colon
HOP-62 NSCLC = system: HOP-62 NSCLC
HOP-92 NSCLC = system: HOP-92 NSCLC
HS 578T breast = system: HS 578T breast
HT29 colon = system: HT29 colon
IGROV1 ovarian = system: IGROV1 ovarian
KM12 colon = system: KM12 colon
LOX IMVI melanoma = system: LOX IMVI melanoma
M14 melanoma = system: M14 melanoma
MALME-3M melanoma = system: MALME-3M melanoma
MCF7 breast = system: MCF7 breast
MDA-MB-231 breast = system: MDA-MB-231 breast
MDA-MB-435 = system: MDA-MB-435
MDA-N = system: MDA-N
NCI-H23 lung = system: NCI-H23 lung
NCI-H460 lung = system: NCI-H460 lung
NCI-H522 lung = system: NCI-H522 lung
NCI/ADR-RES ovarian = system: NCI/ADR-RES ovarian
OVCAR-3 ovarian = system: OVCAR-3 ovarian
OVCAR-4 ovarian = system: OVCAR-4 ovarian
OVCAR-5 ovarian = system: OVCAR-5 ovarian
OVCAR-8 ovarian = system: OVCAR-8 ovarian
PC-3 prostate = system: PC-3 prostate
RPMI-8226 leukemia = system: RPMI-8226 leukemia
RXF 393 renal = system: RXF 393 renal
SF-268 CNS = system: SF-268 CNS
SF-295 CNS = system: SF-295 CNS
SF-539 CNS = system: SF-539 CNS
SK-MEL-2 melanoma = system: SK-MEL-2 melanoma
SK-MEL-28 melanoma = system: SK-MEL-28 melanoma
SK-MEL-5 melanoma = system: SK-MEL-5 melanoma
SK-OV-3 ovarian = system: SK-OV-3 ovarian
SN12C renal = system: SN12C renal
SNB-19 CNS = system: SNB-19 CNS
SNB-75 CNS = system: SNB-75 CNS
SR leukemia = system: SR leukemia
SW-620 colon = system: SW-620 colon
T-47D breast = system: T-47D breast
TK-10 renal = system: TK-10 renal
U251 CNS = system: U251 CNS
UACC-257 melanoma = system: UACC-257 melanoma
UACC-62 melanoma = system: UACC-62 melanoma
UO-31 renal = system: UO-31 renal
HL-60(TB) leukemia = system: HL-60(TB) leukemia
K-562 leukemia = system: K-562 leukemia
MOLT-4 leukemia = system: MOLT-4 leukemia
NCI-H226 lung = system: NCI-H226 lung

`Cc1cc(C)n(CN(Cn2nc(C)cc2C)C2CCCCC2)n1` showed a TGI (786-0 renal) of 48.9 µM, a TGI (A498 renal) greater than 100 µM and a TGI (A549 NSCLC) greater than 100 µM. The TGI (ACHN renal) was 51.9 µM, the TGI (BT-549 breast) was 49.6 µM and the TGI (CAKI-1 renal) was 97.7 µM. The TGI (CCRF-CEM leukemia) was 44.8 µM, the TGI (COLO 205 colon) was 32 µM and the TGI (DU-145 prostate) was 62.2 µM. The TGI (EKVX NSCLC) was 84.5 µM, the TGI (HCC-2998 colon) was 27.9 µM and the TGI (HCT-116 colon) was 45.6 µM. For the same compound, the TGI (HCT-15 colon) was 42.6 µM, the TGI (HOP-62 NSCLC) was 69.6 µM and the TGI (HOP-92 NSCLC) was 87.5 µM. It also gave a TGI (HS 578T breast) greater than 100 µM, a TGI (HT29 colon) of 42.4 µM and a TGI (IGROV1 ovarian) of 50.1 µM. For the same compound, the TGI (KM12 colon) was 49.2 µM, the TGI (LOX IMVI melanoma) was 46.3 µM and the TGI (M14 melanoma) was 36.8 µM. It also gave a TGI (MALME-3M melanoma) of 51.9 µM, a TGI (MCF7 breast) greater than 100 µM and a TGI (MDA-MB-231 breast) of 64.2 µM. For the same compound, the TGI (MDA-MB-435) was 45.4 µM, the TGI (MDA-N) was 34.8 µM and the TGI (NCI-H23 lung) was 56.8 µM. It also gave a TGI (NCI-H460 lung) greater than 100 µM, a TGI (NCI-H522 lung) of 43.8 µM and a TGI (NCI/ADR-RES ovarian) of 42.5 µM. For the same compound, the TGI (OVCAR-3 ovarian) was 56.9 µM, the TGI (OVCAR-4 ovarian) was 67.9 µM and the TGI (OVCAR-5 ovarian) was 53.8 µM. It also gave a TGI (OVCAR-8 ovarian) of 58.4 µM, a TGI (PC-3 prostate) of 60 µM and a TGI (RPMI-8226 leukemia) of 38.9 µM. For the same compound, the TGI (RXF 393 renal) was 50.9 µM, the TGI (SF-268 CNS) was 91.3 µM and the TGI (SF-295 CNS) was greater than 100 µM. The TGI (SF-539 CNS) was 29.1 µM, the TGI (SK-MEL-2 melanoma) was 36.7 µM and the TGI (SK-MEL-28 melanoma) was 42.5 µM. For the same compound, the TGI (SK-MEL-5 melanoma) was greater than 100 µM, the TGI (SK-OV-3 ovarian) was greater than 100 µM and the TGI (SN12C renal) was 66.3 µM. For the same compound, the TGI (SNB-19 CNS) was greater than 100 µM, the TGI (SNB-75 CNS) was 76.8 µM and the TGI (SR leukemia) was greater than 100 µM. The TGI (SW-620 colon) was 92.7 µM, the TGI (T-47D breast) was 76.2 µM and the TGI (TK-10 renal) was greater than 100 µM. The TGI (U251 CNS) was 83.6 µM, the TGI (UACC-257 melanoma) was 78.4 µM and the TGI (UACC-62 melanoma) was 41.7 µM. The TGI (UO-31 renal) was 52.4 µM.

In the case of `COc1ccc2nc3cc(Cl)ccc3c(NCCNCCCNC(=O)c3cc(-c4ccccc4)nc4ccccc34)c2c1`, the TGI (786-0 renal) is reported as greater than 100 µM, the TGI (A498 renal) is reported as greater than 100 µM and the TGI (A549 NSCLC) is reported as greater than 100 µM. For the same compound, the TGI (ACHN renal) was greater than 100 µM, the TGI (BT-549 breast) was greater than 100 µM and the TGI (CAKI-1 renal) was greater than 100 µM. It also gave a TGI (CCRF-CEM leukemia) greater than 100 µM, a TGI (COLO 205 colon) greater than 100 µM and a TGI (DU-145 prostate) greater than 100 µM. For the same compound, the TGI (EKVX NSCLC) was greater than 100 µM, the TGI (HCC-2998 colon) was greater than 100 µM and the TGI (HCT-116 colon) was greater than 100 µM. It also gave a TGI (HCT-15 colon) greater than 100 µM, a TGI (HL-60(TB) leukemia) greater than 100 µM and a TGI (HOP-62 NSCLC) greater than 100 µM. For the same compound, the TGI (HOP-92 NSCLC) was greater than 100 µM, the TGI (HS 578T breast) was greater than 100 µM and the TGI (HT29 colon) was greater than 100 µM. For the same compound, the TGI (IGROV1 ovarian) was greater than 100 µM, the TGI (K-562 leukemia) was greater than 100 µM and the TGI (KM12 colon) was greater than 100 µM. It also gave a TGI (LOX IMVI melanoma) greater than 100 µM, a TGI (M14 melanoma) greater than 100 µM and a TGI (MALME-3M melanoma) greater than 100 µM. For the same compound, the TGI (MCF7 breast) was greater than 100 µM, the TGI (MDA-MB-231 breast) was greater than 100 µM and the TGI (MDA-MB-435) was greater than 100 µM. The TGI (MDA-N) was 97.5 µM, the TGI (MOLT-4 leukemia) was greater than 100 µM and the TGI (NCI-H226 lung) was greater than 100 µM. It also gave a TGI (NCI-H23 lung) greater than 100 µM, a TGI (NCI-H460 lung) greater than 100 µM and a TGI (NCI-H522 lung) greater than 100 µM. For the same compound, the TGI (NCI/ADR-RES ovarian) was greater than 100 µM, the TGI (OVCAR-3 ovarian) was greater than 100 µM and the TGI (OVCAR-4 ovarian) was greater than 100 µM. For the same compound, the TGI (OVCAR-5 ovarian) was greater than 100 µM, the TGI (OVCAR-8 ovarian) was greater than 100 µM and the TGI (PC-3 prostate) was greater than 100 µM. For the same compound, the TGI (RPMI-8226 leukemia) was greater than 100 µM, the TGI (RXF 393 renal) was greater than 100 µM and the TGI (SF-268 CNS) was greater than 100 µM. It also gave a TGI (SF-295 CNS) greater than 100 µM, a TGI (SF-539 CNS) greater than 100 µM and a TGI (SK-MEL-28 melanoma) greater than 100 µM. It also gave a TGI (SK-MEL-5 melanoma) greater than 100 µM, a TGI (SK-OV-3 ovarian) greater than 100 µM and a TGI (SN12C renal) greater than 100 µM. For the same compound, the TGI (SNB-19 CNS) was greater than 100 µM, the TGI (SNB-75 CNS) was greater than 100 µM and the TGI (SR leukemia) was greater than 100 µM. For the same compound, the TGI (SW-620 colon) was greater than 100 µM, the TGI (T-47D breast) was greater than 100 µM and the TGI (TK-10 renal) was greater than 100 µM. For the same compound, the TGI (U251 CNS) was greater than 100 µM, the TGI (UACC-257 melanoma) was greater than 100 µM and the TGI (UACC-62 melanoma) was greater than 100 µM. It also gave a TGI (UO-31 renal) greater than 100 µM.
